Results published in patent publication US20040039014A1, “Methods and compounds for treating depression and other disorders” (NPS Pharmaceuticals, Inc., priority 1998, published 2004).
Structures can show the parent of a compound that is named as a salt. Marks after values point to notes of the source that are not given here.

Experiments:
male Sprague-Dawley rats = assay: Rat forced-swim test (FST); format: in vivo; conditions: Table VI, 60 minutes prior to testing, saline control 47.9
Description: For the mouse and rat forced-swim tests, male pathogen-free NIH-Swiss mice (Harlan Sprague-Dawley) weighing between 22-25 g, and male pathogen-free Sprague-Dawley rats (Harlan Sprague-Dawley) weighing between 320-350 g were used. Animals were removed from the housing room to the testing area in their own cages and allowed to adapt to the new environment for at least 1 hour before testing. Mice were administered either drug (imipramine, 10 mg/kg i.p.; or Compound 60, various p.o or i.p. doses) or saline. Thirty minutes to 24 hours later, mice were placed individually in cylinders (diameter: 10 cm; height: 25 cm) filled with 6 cm of water (22-25° C.) for 6 minutes. The duration of immobility during the last 4 minutes of the 6 minute test was scored. A mouse was recorded as immobile when floating motionless or making only those movements necessary to keep its head above water. Results were expressed as the duration of immobility (seconds).
The rat forced-swim test was conducted over two days. On treatment Day 1, rats were placed individually in cylinders (diameter: 18 cm; height: 40 cm) filled with water (22-25° C.) to a depth of 15 cm for 15 minutes. The duration of immobility during the first 5 minutes was scored. After testing, the rats were dried with paper towels and placed in holding cages. Five minutes after removal from the testing cylinders, animals received either drug (imipramine, 10 mg/kg i.p.; or Compound 60, various p.o. doses) or saline (p.o.). Ten minutes later, the rats were returned to their home cages. […] The duration of immobility during the first 5 minute period was recorded. A rat was recorded as immobile when floating motionless or making only those movements necessary to keep its head above water. […]

NMDA receptor = target: T1, NMDA receptor; assay: [3H]MK-801 binding assay (rat cortex synaptic plasma membranes); conditions: read-out: [3H]MK-801 data IC50, Table I
T1 construct: rat cortex membranes
Description: Synaptic plasma membranes (SPMs) from rat cortex were prepared as follows. Isolated cerebral cortices from male and female rats were purchased from Pel-Freez (Rogers, Ariz.) in bulk, and stored at −80° C. The cortices from 25 rats were thawed and pooled. […] The resulting homogenates were centrifuged for 10 min at 1,000×g in a T865 rotor, UltraPro80 Sorvall Centrifuge. The supernatant was removed and subsequently centrifuged at 30,000×g for 30 min. […] Membranes were washed by re-suspension in 500 ml of 5 mM K-EDTA (pH 7.0), incubated at 32° C. for 30 min with stirring, and centrifuged at 100,000×g for 30 min. The final pellet was resuspended in 60 ml of […] K-EDTA (pH 7.0) and stored in aliquots at −80° C. The extensive washing procedure utilized in this assay was designed to minimize the concentrations of glutamate and glycine (co-agonists at the NMDA receptor-ionophore complex) present in the membrane preparation.
On the day of assay, aliquots of SPM were thawed and resuspended in 75 vols of 5 mM K-EDTA, pH 7.0. SPM were centrifuged at 100,000×g for 30 min at 4° C.
The SPM pellet was resuspended in assay buffer (30 mM EPPS, 1 mM K-EDTA, pH 7.0) by polytron. […] Binding was started by the addition of the tissue homogenate. The assay was terminated by the addition of 4 ml ice-cold buffer, followed by filtration over glass-fiber filters (Schleicher & Schuell No. 30) on a Millipore 12-well filtration manifold. Filters were washed with another 3 ×4 ml ice-cold buffer (pH 7.0). Radioactivity on the filters was measured using Fisherbrand Scinti-Safe scintillation cocktail. Samples were shaken for 45-60 min on a shaker platform to solubilize the radioactivity. Counting for ^3H was performed in a Beckman 6000IC LS Scintillation Counter for 4 min per sample.

[1] = target: T2, dopamine transporter site (Cavia porcellus, UniProt H0WCX4); assay: Dopamine reuptake inhibition assay ([3H]WIN 35428 binding, guinea pig striatal membranes); conditions: Table I; read-out: DA Uptake Ki
T2 construct: tissue NovaScreen (performed the assay); host or cells: guinea pig striatal membranes
T2 sequence (H0WCX4 1-619): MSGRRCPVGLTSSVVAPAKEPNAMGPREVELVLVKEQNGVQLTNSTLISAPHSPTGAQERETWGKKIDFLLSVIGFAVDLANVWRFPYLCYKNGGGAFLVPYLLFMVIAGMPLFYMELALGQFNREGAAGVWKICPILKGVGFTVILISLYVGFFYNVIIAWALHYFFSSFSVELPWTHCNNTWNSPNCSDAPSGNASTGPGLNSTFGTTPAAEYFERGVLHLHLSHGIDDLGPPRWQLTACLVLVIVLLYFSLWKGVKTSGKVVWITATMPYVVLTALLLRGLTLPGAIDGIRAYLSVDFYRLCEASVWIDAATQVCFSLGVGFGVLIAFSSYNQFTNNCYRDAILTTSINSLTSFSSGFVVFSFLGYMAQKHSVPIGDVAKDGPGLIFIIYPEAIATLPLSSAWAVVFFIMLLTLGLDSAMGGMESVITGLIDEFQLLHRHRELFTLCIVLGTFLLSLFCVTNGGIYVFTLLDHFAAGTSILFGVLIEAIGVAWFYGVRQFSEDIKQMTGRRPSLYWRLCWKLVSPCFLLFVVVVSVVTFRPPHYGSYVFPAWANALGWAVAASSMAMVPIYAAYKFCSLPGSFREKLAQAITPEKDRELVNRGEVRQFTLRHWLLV
Description: Monoamine Transporter Minding Assays
Monoamine transporter binding assays (reuptake inhibition assays) were performed by NovaScreen using standard radioligand binding assays. The transporter binding assays are described briefly below:
Dopamine Reuptake Inhibition Assay:
Reactions were terminated by rapid vacuum filtration onto glass fiber filters. Bound radioactivity was determined using liquid scintillation spectrometry and experimental values were compared to control values to determine binding to the dopamine transporter site based on Madras, et al., Molec.

CNCCC(c1cccc(F)c1)c1cccc(F)c1 [Compound 60, N-Methyl-3.,3-bis(3-fluorophenyl)propylamine hydrochloride]
Mean Change in the Duration of Immobility (Day 2 minus Day 1) (male Sprague-Dawley rats; 1.25 mg/kg oral): 29.7 s | Mean Change in the Duration of Immobility (Day 2 minus Day 1) (male Sprague-Dawley rats; 2.5 mg/kg oral): −24.8* sec | Mean Change in the Duration of Immobility (Day 2 minus Day 1) (male Sprague-Dawley rats; 5 mg/kg oral): −28.8* sec | IC50 (NMDA receptor): 641 nM | Ki [1]: 914 nM
